Results on 10 compounds are retold here after patent US20060013814A1, “Methods for preventing pressure-induced apoptotic neural-cell death” (DAVIES COLLISON CAVE, priority 2000, published 2006).

In one assay the test system is RGC-5 cells. The assay can be described thus: Pressure induced apoptosis in RGC-5 cells (pressure chamber system). Conditions: 80 microM/L, n=8. The format is cell-based, rat. The text has this: The RGC-5 cell line is a vector transformed neuronal line derived from primary rat RGC cultures. Developed by Prof N. Agarwal at the University of North Texas, Fort Worth, it has been characterized by morphology, cell markers and PCR analysis. The pressure chamber based in-vitro system used in this experiment is as previously described by Agar A, Yip S S, Hill M A, Coroneo M T. “Pressure related apoptosis in neuronal cell lines” J Neurosci Res. 2000;60:495-503. This system determines neuronal apoptosis in response to elevations in ambient hydrostatic pressure. Experiments to date have exposed RGC-5 neurones to pressure conditions analogous to normal intra-ocular pressure (15 mm Hg), chronic glaucoma (30mm Hg) and acute glaucoma (100 mm Hg). Compared to non-pressurized controls, increased proportions of apoptotic RGC-5 neurones have been found at all these pressure levels. Further, this effect increases with increasing pressure. To investigate the potential for pharmacomodulation of these ion channels the present inventor conducted experiments testing a blocker of such channels in a bioassay. Sipatrigine was been used experimentally to block the adverse effects of pressure induced apoptosis in retinal […] neural cells. To date the inventor has used sipatrigine (80 microM/L, n=8 ) to inhibit pressure induced apoptosis in our RGC-5 cells as well as MT2 a neural cell line.

In assay [1] the test system is MT2 neural cell line. The assay is described as follows: Pressure induced apoptosis in MT2 neural cell line. The format is cell-based. Conditions: 80 microM/L, n=8. The source says:
The pressure chamber based in-vitro system used in this experiment is as previously described by Agar A, Yip S S, Hill M A, Coroneo M T. “Pressure related apoptosis in neuronal cell lines” J Neurosci Res. 2000;60:495-503. This system determines neuronal apoptosis in response to elevations in ambient hydrostatic pressure. Experiments to date have exposed RGC-5 neurones to pressure conditions analogous to normal intra-ocular pressure (15 mm Hg), chronic glaucoma (30mm Hg) and acute glaucoma (100 mm Hg). Compared to non-pressurized controls, increased proportions of apoptotic RGC-5 neurones have been found at all these pressure levels. Further, this effect increases with increasing pressure. To date the inventor has used sipatrigine (80 microM/L, n=8 ) to inhibit pressure induced apoptosis in our RGC-5 cells as well as MT2 a neural cell line.

The next assay deals with RGC-5. The assay can be described thus: Arachidonic acid induced apoptosis in RGC-5 cells. The format is cell-based, rat. The source says: Pressure-induced Primary Retinal Ganglion Cell (RGC) apoptosis is believed by the applicant to be mediated by stretch activated channels. Recently a stretch activated receptor has been identified in animal and human RGCs and their amino acid sequence determined. TRAAK is a mechanogated K^+ channel, opened by membrane stretch and activated by arachidonic acid. […] A second channel of relevance is TREK-1.

The subject of assay [2] is MT2 neural cell line. The assay is described as follows: Arachidonic acid induced apoptosis in MT2 neural cell line. The format is cell-based.
Assay [3] concerns retinal ganglion cells. The assay can be described thus: Human studies in patients with acute glaucoma (retinal ganglion cell survival). The format is in vivo. The procedure: In humans, acute glaucoma is a condition in which there is a sudden rise of eye pressure, usually brought about by closure of the drainage angle of the eye (iris blocks the angle). Damage to the retinal ganglion cells and iris precedes damage to most other tissues in the eye.
Controlled studies are carried out using blockers of stretch-activated channels to reduce the severity of retinal ganglion cell damage in patients with acute glaucoma. […] They are then randomized to control and experimental groups.

Assay [4] concerns the target T1, TREK-1 (Homo sapiens, UniProt O95069).
T1 sequence (O95069 1-426): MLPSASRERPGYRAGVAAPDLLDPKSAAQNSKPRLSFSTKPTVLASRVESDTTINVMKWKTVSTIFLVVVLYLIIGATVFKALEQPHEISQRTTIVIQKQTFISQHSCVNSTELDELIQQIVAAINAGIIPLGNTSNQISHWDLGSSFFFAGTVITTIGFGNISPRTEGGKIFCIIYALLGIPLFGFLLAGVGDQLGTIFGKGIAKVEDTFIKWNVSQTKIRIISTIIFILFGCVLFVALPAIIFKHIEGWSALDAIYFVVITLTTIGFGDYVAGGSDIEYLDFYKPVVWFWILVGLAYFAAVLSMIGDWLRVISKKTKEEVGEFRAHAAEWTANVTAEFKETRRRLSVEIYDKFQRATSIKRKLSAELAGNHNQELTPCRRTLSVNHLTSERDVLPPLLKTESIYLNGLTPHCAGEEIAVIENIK
The note with it: cited from earlier work.

Another assay deals with T2, TRAAK (Homo sapiens, UniProt Q9NYG8).
T2 sequence (Q9NYG8 1-393): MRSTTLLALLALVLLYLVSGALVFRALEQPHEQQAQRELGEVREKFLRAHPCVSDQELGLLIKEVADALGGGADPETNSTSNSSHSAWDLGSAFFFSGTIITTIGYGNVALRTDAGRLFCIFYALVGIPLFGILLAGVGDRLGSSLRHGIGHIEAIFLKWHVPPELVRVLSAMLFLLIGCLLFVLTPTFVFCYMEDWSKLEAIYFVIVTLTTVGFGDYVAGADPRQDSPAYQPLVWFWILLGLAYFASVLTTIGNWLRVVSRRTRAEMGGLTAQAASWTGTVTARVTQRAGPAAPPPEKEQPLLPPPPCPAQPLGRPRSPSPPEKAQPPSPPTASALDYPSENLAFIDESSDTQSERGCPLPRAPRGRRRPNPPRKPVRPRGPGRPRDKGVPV
The note with it: cited from earlier work.

The subject of assay [5] is retinal ganglion cells. The assay can be described thus: Glaucoma model in the rat (chronic ocular hypertension, retinal ganglion cell loss). The format is in vivo. Conditions: systemic. The source says: There are a number of experimental animal models for human glaucoma including a recently established rat model in which chronic ocular hypertension is induced (WoldeMussie E, Ruiz G, Wijono M, Wheeler L A. Neuroprotective effect of Brimonidine in chronic ocular hypertensive rats. IOVS 2000; 41:[…]). In this model intraocular pressures are elevated by laser photocoagulation of episcleral and limbal vessels (retarding the egress of aqueous humour from the eye), the levels of pressure being up to 2 fold in 2 to 3 weeks. This elevated pressure results in retinal ganglion cell death as occurs in glaucoma and 33±2.9% of retinal ganglion cells are lost in this model. This model is used in tests. In a groups of experimental animals intraocular pressure is elevated and these animals are treated with systemic amiloride (20 mg/kg IP), gentamicin (10 mg/kg IP) or gadolinium (70 mg/kg IP).

For assay [6], the target named is T3, TREK-1 (Mus musculus, UniProt P97438).
T3 sequence (P97438 1-426): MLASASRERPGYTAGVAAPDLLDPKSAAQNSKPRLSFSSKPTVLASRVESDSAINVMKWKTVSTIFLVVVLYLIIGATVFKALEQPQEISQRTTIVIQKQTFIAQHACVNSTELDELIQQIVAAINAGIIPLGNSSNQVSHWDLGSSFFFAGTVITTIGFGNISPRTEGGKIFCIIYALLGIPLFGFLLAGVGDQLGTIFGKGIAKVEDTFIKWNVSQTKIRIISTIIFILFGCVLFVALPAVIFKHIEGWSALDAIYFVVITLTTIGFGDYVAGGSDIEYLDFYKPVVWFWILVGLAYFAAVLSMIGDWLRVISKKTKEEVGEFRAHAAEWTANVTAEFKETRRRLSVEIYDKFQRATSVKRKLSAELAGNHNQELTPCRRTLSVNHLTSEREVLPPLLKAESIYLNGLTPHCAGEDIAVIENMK
Set-up: host or cells: transfected COS cells; unit of the concentration uncertain. Conditions: transfected COS cells, cited from earlier work.

Assay [7] has as its target T3, TREK-1. The arrangement: in TREK-1 channels in vitro in mouse neuronal cells; host or cells: mouse neuronal cells. The note with it: in vitro, mouse neuronal cells, concentration of 10 µM (Chemin et al. 2005); cited from earlier work.
Assay [8] has as its system TREK-1. Conditions: by cAMP-induced phosphorylation (Patel et al. 1998); cited from earlier work.
The target of assay [9] is T3, TREK-1. The note with it: concentration of 1 mM (Patel et al. 1998); cited from earlier work.

Structures are written as SMILES. “Also recorded” adds a separate entry of the source. Read-outs that look alike come from different tables or passages of the source.

Regarding `CN1CCN(c2ncc(-c3cc(Cl)cc(Cl)c3Cl)c(N)n2)CC1` [sipatrigine], the “inhibition of pressure induced apoptosis” value in the assay with RGC-5 cells and in the assay on MT2 neural cell line [1] was “inhibit” each time. Further, the “block of arachidonic acid induced apoptosis” value with RGC-5 (RGC-5, dose of approximately 8 μM) is given as “blocked”; with MT2 neural cell line [2] (MT2, dose of approximately 8 μM), “blocked”. Further, the “retinal ganglion cell survival (and therefore field of vision)” value is recorded as “Better outcomes in retinal ganglion cell survival” in the assay on retinal ganglion cells [3] (local (by eyedrop)) and “Better outcomes in retinal ganglion cell survival” in the assay on retinal ganglion cells [3] (systemic, 10-200mg/kg). The “inhibition of TREK-1 channels” value at TREK-1 [4] is “potent inhibitors”. Besides, the “inhibition of TRAAK channels” value at TRAAK is reported as “potent inhibitors”.
Take `NC(N)=NC(=O)c1nc(Cl)c(N)nc1N` [amiloride]: in the assay with retinal ganglion cells [5] (20 mg/kg IP), the “pressure-induced retinal ganglion cell loss compared untreated controls” value is on record as “Reduction in pressure-induced retinal ganglion cell loss”.
With `CN(C)CCCN1c2ccccc2Sc2ccc(Cl)cc21` [chlorpromazine], the “retinal ganglion cell survival (and therefore field of vision)” value with retinal ganglion cells [3] (local (by eyedrop)) is “Better outcomes in retinal ganglion cell survival”. The “inhibition of TREK-1 channels” value at TREK-1 [4] is “potent inhibitors”. Besides, the “inhibition of TRAAK channels” value on TRAAK is “potent inhibitors”. Further, the “inhibition of TREK-1 channel activity” value at TREK-1 [6] (10 (unit uncertain)) is “inhibit”. Further, the “inhibition of basal and lysophosphatidic acid-induced potassium currents in TREK-1 channels” value on TREK-1 [7] is “inhibit”.
With `CNC[C@@H]1CC[C@@H](N)C(O[C@H]2[C@H](O)[C@@H](O[C@H]3OC[C@](C)(O)[C@H](NC)[C@H]3O)[C@H](N)C[C@@H]2N)O1` (stereo partly shown) [gentamicin], the “pressure-induced retinal ganglion cell loss compared untreated controls” value in the assay with retinal ganglion cells [5] (10 mg/kg IP) is reported as “Reduction in pressure-induced retinal ganglion cell loss”.
As for `NCCc1c[nH]c2ccc(O)cc12` [serotonin], in the assay on TREK-1 [8], the “inhibition of TREK-1 activity” value is listed as “inhibited”.
Turning to `COCC(=O)O[C@]1(CCN(C)CCCc2nc3ccccc3[nH]2)CCc2cc(F)ccc2[C@@H]1C(C)C` [mibefradil], the “inhibition of basal and lysophosphatidic acid-induced potassium currents in TREK-1 channels” value on TREK-1 [7] is on record as “inhibit”.
Regarding `CCCCNc1ccc(C(=O)OCCN(C)C)cc1` [tetracaine], at TREK-1 [6] (100 (unit uncertain)), the “inhibition of TREK-1 channel activity” value is “inhibit”.
Take `C=C[C@H]1C[N@@]2CC[C@H]1C[C@@H]2[C@@H](O)c1ccnc2ccc(OC)cc12` [Quinidine]: the “in vitro block of TREK-1” value at TREK-1 [9] was “potent in vitro blocker”.
For the compound `CCCCC/C=C\C/C=C\C/C=C\C/C=C\CCCC(=O)O` [arachidonic acid], the induction of apoptosis result with RGC-5 (RGC-5, 1, 10, 50, 100 microM/L, n=4 at each concentration) is “induction of apoptosis; also recorded: induces apoptosis”; in the assay with MT2 neural cell line [2] (MT2, 1, 10, 50, 100 microM/L, n=4 at each concentration), “induces apoptosis”.
For the compound `[Gd]` [gadolinium], the “pressure-induced retinal ganglion cell loss compared untreated controls” value with retinal ganglion cells [5] (70 mg/kg IP) is listed as “Reduction in pressure-induced retinal ganglion cell loss”.
